In article PMC6010121, “Structural re-positioning, in silico molecular modelling, oxidative degradation, and biological screening of linagliptin as adenosine 3 receptor (ADORA3) modulators targeting hepatocellular carcinoma” (Journal of Enzyme Inhibition and Medicinal Chemistry, 2018) one finds Ki data, which are given here for one compound.

This assay deals with T1, adenosine 3 receptor (ADORA3) (Homo sapiens, UniProt P0DMS8).
T1 construct: recombinant human ADORA3 (Abcam)
T1 sequence (P0DMS8 1-318): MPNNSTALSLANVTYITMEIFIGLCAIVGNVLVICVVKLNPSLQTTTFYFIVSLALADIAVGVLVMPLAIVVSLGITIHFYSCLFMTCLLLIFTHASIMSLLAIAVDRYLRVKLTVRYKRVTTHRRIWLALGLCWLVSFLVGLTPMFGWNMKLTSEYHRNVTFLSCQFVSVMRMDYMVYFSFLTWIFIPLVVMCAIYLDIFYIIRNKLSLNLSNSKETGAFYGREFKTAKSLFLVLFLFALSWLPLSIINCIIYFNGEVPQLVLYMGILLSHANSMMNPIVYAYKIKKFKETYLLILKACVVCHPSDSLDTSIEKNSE
Briefly: ELISA-based binding inhibition with recombinant human ADORA3 on anti-ADORA3 antibody-coated wells; Ki calculated from IC50 ([…]).

As usually defined, the Ki is the dissociation constant of the complex between target and ligand, obtained from inhibition or displacement. Consider `CC#CCn1c(N2CCC[C@@H](N)C2)nc2c1c(=O)n(Cc1nc(C)c3ccccc3n1)c(=O)n2C` [LIN, linagliptin], for which the Ki was 37.7 nM.
